The supplement of paper PMC10307832

Legend:
Experiment in all cases: relative viability (nuclei count vs DMSO), 5 days (fraction); higher = more cells survive
[1] = compound: C[C@@H](C(=O)N[C@@H](C1CCCCC1)C(=O)N2CCC[C@H]2C(=O)N[C@@H]3[C@@H](CC4=CC=CC=C34)OCC#CC#CCO[C@@H]5CC6=CC=CC=C6[C@@H]5NC(=O)[C@@H]7CCCN7C(=O)[C@H](C8CCCCC8)NC(=O)[C@H](C)NC)NC [AZD5582] + CS(=O)(=O)CCNCc1ccc(-c2ccc3ncnc(Nc4ccc(OCc5cccc(F)c5)c(Cl)c4)c3c2)o1 [Lapatinib] (partner 2 µM)
Procedure, shortened: (§1)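 After 5 days of treatment, lung cancer cells in 1536-well plates were fixed and stained in a single step (final 0.05% Triton X-100, 1% formaldehyde, 1 ug/ml Hoechst) and their nuclei counted on 4× images. Treatment had been applied by pin tool the day after seeding as one drug alone or as a fixed anchor-drug dose with five library-drug doses (not always all listed) in √10 steps. Relative viability is the nuclei count of treated wells divided by that of vehicle wells, and values are medians of duplicate plates.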

[2] = compound: Cn1nnc2c(C(N)=O)ncn2c1=O [Temozolomide] + CCNC(=O)c1noc(-c2cc(C(C)C)c(O)cc2O)c1-c1ccc(CN2CCOCC2)cc1 [Luminespib] (partner 0.01 µM)
Procedure, shortened: as §1

[3] = compound: Cn1nnc2c(C(N)=O)ncn2c1=O [Temozolomide] + Cc1nc(Nc2ncc(C(=O)Nc3c(C)cccc3Cl)s2)cc(N2CCN(CCO)CC2)n1 [Dasatinib] (partner 0.075 µM)
Procedure, shortened: as §1

[4] = compound: C[C@@H](C(=O)N[C@@H](C1CCCCC1)C(=O)N2CCC[C@H]2C(=O)N[C@@H]3[C@@H](CC4=CC=CC=C34)OCC#CC#CCO[C@@H]5CC6=CC=CC=C6[C@@H]5NC(=O)[C@@H]7CCCN7C(=O)[C@H](C8CCCCC8)NC(=O)[C@H](C)NC)NC [AZD5582] + CC1(C)CCC(c2ccc(Cl)cc2)=C(CN2CCN(c3ccc(C(=O)NS(=O)(=O)c4ccc(N[C@H](CCN5CCOCC5)CSc5ccccc5)c(S(=O)(=O)C(F)(F)F)c4)cc3)CC2)C1 [Navitoclax] (partner 0.5 µM)
Procedure, shortened: as §1

Cell Line	relative viability ([1]; first compound 0.001581 µM)	relative viability ([1]; first compound 0.005 µM)	relative viability ([1]; first compound 0.01581 µM)	relative viability ([1]; first compound 0.05 µM)	relative viability ([2]; first compound 0.2 µM)	relative viability ([2]; first compound 0.6325 µM)	relative viability ([2]; first compound 2 µM)	relative viability ([2]; first compound 6.325 µM)	relative viability ([2]; first compound 20 µM)	relative viability ([3]; first compound 0.2 µM)	relative viability ([3]; first compound 0.6325 µM)	relative viability ([3]; first compound 2 µM)	relative viability ([3]; first compound 6.325 µM)	relative viability ([3]; first compound 20 µM)	relative viability ([4]; first compound 0.001581 µM)	relative viability ([4]; first compound 0.005 µM)	relative viability ([4]; first compound 0.01581 µM)	relative viability ([4]; first compound 0.05 µM)
NCI-H650	0.592	0.787	0.428	0.606	0.607	0.898	0.816	0.739	0.846	0.504	0.46	0.532	0.395	0.43				
LC-2-ad	0.966	1.07	0.888	0.904	0.928	1.05	1.09	0.899	0.988	0.628	0.662	0.836	0.471	0.472	0.331	0.454	0.468	0.384
NCI-H1299	0.846	0.883	0.971	0.812											1	1.07	1.08	1.04
NCI-H3122	0.966	1.1	1.05	0.413	0.0795	0.105	0.125	0.0851	0.0839	0.931	0.803	0.886	0.812	0.828	1.04	1.03	1.01	0.619
EBC-1	0.187	0.226	0.193	0.255											0.394	0.408	0.4	0.373
NCI-H441					0.333	0.515	0.331	0.306	0.368	0.656	0.621	0.682	0.608	0.724	0.639	0.543	0.453	0.518
LOU-NH91	0.815	0.817	0.794	0.797	0.341	0.341	0.323	0.325	0.361	0.444	0.551	0.589	0.572	0.448	0.652	0.724	0.704	0.678
LXF-289	0.895	0.929	0.823	0.922	0.712	0.782	0.722	0.729	0.659	0.27	0.228	0.192	0.18	0.252	0.948	0.935	0.919	0.934
HCC-827	0.222	0.183	0.179	0.163	0.52	0.67	0.638	0.382	0.191	0.256	0.343	0.299	0.326	0.149	1.09	1.01	0.972	1.04
RERF-LC-KJ	0.732	0.748	0.8	0.83	1.29	1.19	1.32	1.19	1.27	0.913	0.825	0.931	0.931	0.767	0.375		0.825	0.295
NCI-H2228	0.614	0.739	1.05	0.34	0.125	0.162	0.104	0.149	0.137	0.577	0.637	0.516	0.463	0.44	0.904	0.851	0.837	0.555
SW 1573	0.954	1.28	1.24	1.09	0.295	0.331	0.273	0.206	0.28	0.532	0.533	0.594	0.355	0.489	0.848	0.926	0.82	1.32
NCI-H1792	0.862	0.935	0.798	1.01	0.412	0.436	0.44	0.493	0.508	0.498	0.747	0.73	0.778	0.867	0.608	0.632	0.578	0.836
ChaGo-K-1					0.679	0.625	0.785	0.557	0.556	0.605	0.603	0.781	0.552	0.579	0.977	1.18	0.797	0.994
NCI-H1650	0.587	0.832	0.581	0.37	0.187	0.205	0.178	0.189	0.217	0.356	0.329	0.343	0.318	0.28	1.07	1.04	1.23	1.17
HARA	0.789	0.943	0.756	0.698	0.681	0.801	0.835	0.788	0.697	0.238	0.301	0.309	0.29	0.23	1.11	1.07	1.14	1.12
SW 900					0.163	0.175	0.169	0.131	0.149	0.644	0.561	0.381	0.541	0.553				
NCI-H520	0.738	0.945	0.818	1.01	0.216	0.216	0.234	0.222	0.21	0.24	0.212	0.207	0.185	0.235	1.07	1.15	1.1	1.15
ABC-1	0.932	1.19	1.01	1.44	0.507	0.439	0.788	0.551	0.553	0.621	0.558	0.607	0.49	0.586				
NCI-H1734	1.03	1.2	0.99	1.23	0.285	0.183	0.237	0.201	0.194	0.482	0.471	0.396	0.482	0.464	0.791	0.866	0.886	0.954
EKVX	0.207	0.209	0.169	0.199	0.364	0.873	0.888	0.829	0.714		0.575	0.55	0.782	0.352	0.878	1.01	0.798	0.959

Cell Line	relative viability ([1]; first compound 0.001581 µM)	relative viability ([1]; first compound 0.005 µM)	relative viability ([1]; first compound 0.01581 µM)	relative viability ([1]; first compound 0.05 µM)	relative viability ([2]; first compound 0.2 µM)	relative viability ([2]; first compound 0.6325 µM)	relative viability ([2]; first compound 2 µM)	relative viability ([2]; first compound 6.325 µM)	relative viability ([2]; first compound 20 µM)	relative viability ([3]; first compound 0.2 µM)	relative viability ([3]; first compound 0.6325 µM)	relative viability ([3]; first compound 2 µM)	relative viability ([3]; first compound 6.325 µM)	relative viability ([3]; first compound 20 µM)	relative viability ([4]; first compound 0.001581 µM)	relative viability ([4]; first compound 0.005 µM)	relative viability ([4]; first compound 0.01581 µM)	relative viability ([4]; first compound 0.05 µM)
NCI-H1915	0.923	1.02	0.873	0.89	0.963	0.761	0.616	0.429	0.313	0.348	0.328	0.288	0.215	0.198	0.777	0.757	0.793	0.746
NCI-H1395	1.08	1.07		1.13	0.51	0.67	0.703	0.65	0.6	0.429	0.393	0.491	0.402	0.392	1.02	1.16		1.49
HCC-366	0.936	1.05	0.961	1.08						0.661	0.688	0.655	0.682	0.652	1.05	0.925	0.998	1.07
HCC-44	0.754	0.916	1.11	0.467	0.634	1.05	1.12	0.897	0.966						0.919	0.692	1.01	0.581
COR-L 105	0.351	0.424	0.315	0.421	0.798	0.781	1.13	0.561	1.04	0.285	0.358	0.481	0.313	0.188	0.8	0.657	0.746	0.813
LK-2	0.654	1.03	0.965	0.952	0.177	0.186	0.199	0.163	0.187	0.266	0.323	0.384	0.246	0.27	0.754	0.895	0.803	1.21
LCLC-97TM1		0.627	0.404	0.294	0.835	0.7	0.749	0.806	0.75	0.76	0.807	0.934	0.813	0.803		0.329	0.347	0.32
PC-3 [JPC-3]	0.423	0.411	0.448	0.26	0.63	0.739	0.776	0.659	0.421	0.825	0.987	1.07	1.02	0.438	0.752	0.727	0.664	0.486
NCI-H1975	1.01	1.21	0.836	1.2		0.23	0.487	0.131	0.172	0.466	0.365	0.413	0.361	0.462	1.12	1.19	1.18	1.2
LCLC-103H					1.09	1.04	1.07	1.01	0.872	0.524	0.567	0.548	0.565	0.471				
NCI-H1623						0.488	0.416	0.361	0.519		0.555	0.455	0.474	0.355				
NCI-H661	0.38	0.561	0.53	0.716	0.977	0.931	0.934	0.879	0.843	0.781	0.953	0.962	0.762	0.706				
A549	0.896	0.983	0.898	0.851											1.24	1.26	1.2	1.14
Calu-6	0.626	0.662	1.14	0.568											0.718	0.635	0.871	0.467
NCI-H358	0.484	0.566	0.477	0.452		0.271	0.485	0.347	0.404	0.13	0.151	0.17	0.142	0.135				
NCI-H522					0.877	1.21	0.981	1.18	1.05	0.877	0.729	0.932	0.703	0.935				
NCI-H1563	0.909	1.15	0.788	1.64	0.472	0.499	0.525	0.533	0.487	0.454	0.481	0.453	0.366	0.447				
IA-LM	0.623	0.725	0.809	0.584											0.499	0.538	0.951	0.714
HCC-78	0.703	0.794	0.603	0.198						0.363	0.456	0.418	0.391	0.365	0.69	0.948	0.775	0.617
NCI-H2342					0.633	0.674	0.706	0.629	0.637	0.311	0.301	0.304	0.312	0.297				
